Patent US20240156893A1 (priority 2021, published 2024)
“And” between values parts separate entries of the source, which are not always exact repeats. Equal values may be shown once.

Key:
[1] = test system: Influenza A strain A/WSN/33 (H1N1); type: cell-based, Influenza A virus
MDCK-II cells [2] = test: Parallel residual cytotoxicity test without virus on MDCK-II assay cells (Example 6); type: cell-based, canine; settings: after filtration, no virus, 1% LTX-7 or 0.2% Triton X-100
Protocol: (§1) Appropriate controls were also performed.

[3] = test system: SARS-CoV-2 isolate England/02/2020; type: cell-based; settings: SARS-CoV-2, contact time 1 h at RT; 1% LTX-12 (w/v) in PBS or 0.2% Triton in PBS; Vero cells
Vero cells = test: Parallel residual cytotoxicity test without virus on Vero assay cells (Example 5); type: cell-based, African green monkey; settings: after filtration, no virus, 1% LTX-12 or 0.2% Triton
Protocol: as §1

[4] = test system: Lenti virus-like particle expressing VSV-G
[5] = test system: Influenza A virus (IAV, A/WSN/33); type: cell-based
MDCK-II cells [6] = test: Parallel residual cytotoxicity test without virus on MDCK-II assay cells (Example 2); type: cell-based, canine; settings: 1% LTX-109, after filtration, no virus
Protocol: as §1

[7] = test system: Respiratory Syncytial Virus (RSV); test: TCID50 virucidal assay, LTX-109 against RSV on Hep2 cells; type: cell-based; settings: for TCID50/ml ± SEM (average virus titre recovered): 1 h incubation, Hep2 cells
Protocol: The experiment was performed in triplicates.
as §1

SARS-CoV-2 = type: cell-based
Hep2 cells = settings: 0.1% LTX-109, after filtration, no virus
Protocol: After 1 hour, the incubation was stopped by adding an excess of cold media, and the formulation was physically separated from the virus through a filter to reduce cytotoxicity on the assay cells. […] Infectious virus was quantified through a serial dilution (a series of ten-fold dilutions) on monolayers of Hep2 cells in microtitre plates (Hep2 cells are mammalian cells capable of displaying a cytopathic effect (CPE) upon viral infection). The starting solution for the serial dilution (i.e. the neat (or undiluted) solution) was obtained by re-suspending the virus that was separated via the filtration step in 1 ml of media. For each dilution of the virus in the dilution series, eight wells of the microtitre plate were tested (i.e. each dilution of virus was applied to eight separate wells, each well containing a Hep2 cell monolayer). Appropriate controls were also performed. […] The TCID50 (TCID50/ml) assay (Tissue Culture Infectious Dose 50 assay) is a type of endpoint dilution assay that is well known in the art and routinely used to quantitatively measure virus titres. TCID50/ml provides a measure of infectious units of virus/ml. “/ml” refers to/ml of the starting solution (i.e. neat/undiluted solution) mentioned above. […]

N=C(N)NCCCC(N)C(=O)NC(Cc1ccc(-c2ccc3ccccc3c2)cc1)C(=O)NC(CCCNC(=N)N)C(=O)NCCc1ccccc1 (centres unmarked) [LTX-7, Arg-Phe(4-(2-Naphthyl))-Arg-NH—CH2—CH2-Ph]
Rounded % (reduction) ([1]; contact time 1 h, 1% LTX-7 or 0.2% Triton X-100): 99.99% | TCID50/ml ± SEM (average virus titre recovered) ([1]; contact time 1 h at RT, 1% LTX-7 (w/v) in PBS or 0.2% Triton X-100 in PBS, MDCK-II cells): 1.58E+01 TCID50/ml and 1.58E+01 ± 0.00E+00 TCID50/ml | Cytotoxicity on assay cells (dilution at which seen) (MDCK-II cells [2]): neat

CC(C)(C)c1cc(C(C)(C)C)c2[nH]c(C(C)(C)C)c(CC(NC(=O)C(N)CCCCN)C(=O)NC(CCCCN)C(=O)NCCc3ccccc3)c2c1 (stereo not drawn) [LTX-12, Lys-Tbt-Lys-NH—CH2—CH2-Ph]
TCID50/ml ± SEM (average virus titre recovered) [3]: 1.58E+02 TCID50/ml and 1.58E+02 ± 0.00E+00 TCID50/ml | Cytotoxicity on assay cells (Vero cells): no significant cytotoxicity

CC(C)(C)c1cc(C(C)(C)C)c2[nH]c(C(C)(C)C)c(CC(NC(=O)C(N)CCCNC(=N)N)C(=O)NC(CCCNC(=N)N)C(=O)NCCc3ccccc3)c2c1 (centres unmarked) [LTX-109]
Effect on envelope of Lenti-virus-like particles (electron microscopy) [4]: disrupted (or dissolved) envelope | TCID50/ml ± SEM (average virus titre recovered) ([5]; 1% LTX-109 (w/v) in PBS, 1 h incubation, MDCK-II cells): 1.58E+01 TCID50/ml and 1.58E+01 ± 0.00E+00 TCID50/ml | Log (virus titre) ([5]; 1% LTX-109, 1 h): 1.20 Log | Percentage (decrease in infectivity vs PBS control) ([5]; 1% LTX-109, 1 h): 99.9% and 99.969% | With Filtration: cytotoxicity on assay cells (dilution up to which seen) (MDCK-II cells [6]): only up to the first dilution | TCID50/ml ± SEM (average virus titre recovered) ([7]; 0.1% LTX-109 (w/v) in PBS): 8.76E+01 TCID50/ml and 8.76E+01 ± 4.11E+01 TCID50/ml | Log (virus titre) ([7]; 0.1% LTX-109, 1 h): 1.78 Log | Percentage (decrease in infectivity vs PBS control) ([7]; 0.1% LTX-109, 1 h): 99.9% and 99.97% | TCID50/ml ± SEM (average virus titre recovered) ([7]; 1% LTX-109 (w/v) in PBS): 1.58E+02 TCID50/ml and 1.58E+02 ± 0.00E+00 TCID50/ml | Log (virus titre) ([7]; 1% LTX-109, 1 h): 2.20 Log | Percentage (decrease in infectivity vs PBS control) ([7]; 1% LTX-109, 1 h): 99.9% and 99.949% | TCID50/ml ± SEM (average virus titre recovered) (SARS-CoV-2; SARS-CoV-2, 1% LTX-109 (w/v) in PBS, 1 h incubation, Vero cells): 1.99E+02 TCID50/ml and 1.99E+02 ± 4.11E+01 TCID50/ml | Log (virus titre) (SARS-CoV-2; SARS-CoV-2, 1% LTX-109, 1 h): 2.28 Log | Percentage (decrease in infectivity vs PBS control) (SARS-CoV-2; SARS-CoV-2, 1% LTX-109, 1 h): 99.99% and 99.995% | With Filtration: cytotoxicity on assay cells (Hep2 cells): No cytotoxicity
